# From patent publication US20230233567A1, “BELVARAFENIB FOR USE IN CANCER TREATMENT” (Hanmi Pharm. Co., Ltd., priority 2020, published 2023)
# Where two headings read alike, the source gives them in different places.
# Assays:
# [1] = Phase I study plasma pharmacokinetics; assay type: in vivo, human; conditions: human, plasma; for AUC(0-inf) / AUC(0-t) / Cmax / AUC / Vd/F: mean; for AUC: read-out: AUC24; for Vd/F: read-out: Vz/F; for half-life: read-out: median t1/2 at steady state
# From the text: The PK parameters of belvarafenib were estimated in 48 patients in the dose-escalation phase and 35 patients in the dose-expansion phase. In the tables: “AUClast” refers to the area under the plasma concentration-time curve from zero time until the last measurable concentration; “AUC0-∞” refers to area under the plasma concentration-time curve from zero time to infinity; “AUC24” refers to the area under the curve from T0 to T24; “Cmax” refers to the maximal concentration; “Tmax” refers to the time to reach Cmax; “T1/2β” refers to the terminal elimination half-life; “QD” refers to once a day; and “BID” refers to twice a day. […] Mean and coefficient of variation are presented except for Tmax where median and range are presented. One patient in the 200 QD dosing regimen who took concomitant rifampin was removed from the analysis because the AUC and Cmax of the patient were much lower than those of the others in the same cohort, which, without being bound to any particular theory, could have resulted from the drug-metabolizing enzyme induction by rifampin through which belvarafenib is biotransformed.
# SNU80 (BRAF^G468R) = test: In vitro cell growth inhibition, thyroid cancer; assay type: cell-based
# [2] = oral, 600 mg/day, Multiple administrations Day 22, 600 mg/day QD, n=6
# [3] = oral, 900 mg/day, Multiple administrations Day 22, 900 mg/day BID, n=7
# [4] = oral, 1300 mg/day, Multiple administrations Day 22, 1300 mg/day BID, n=6
# [5] = oral, 1600 mg/day, Multiple administrations Day 22, 1600 mg/day BID, n=4
# [6] = po, 50 mg/day QD, Day 1 first dose, 50 mg/day QD, n=3
# [7] = po, 100 mg/day QD, Day 1 first dose, 100 mg/day QD, n=3
# [8] = po, 200 mg, Day 1 first dose, 200 mg/day QD, n=6
# [9] = po, 200 mg/day QD, Day 1 first dose, 200 mg/day QD, n=7
# [10] = po, 400 mg/day BID, Day 1 first dose, 400 mg/day BID, n=11
# [11] = po, 600 mg/day BID, Day 1 first dose, 600 mg/day BID, n=7
# [12] = po, 600 mg/day, Day 1 first dose, 600 mg/day BID, n=7
# [13] = po, 600 mg/day, Day 1 first dose, 600 mg/day QD, n=6
# [14] = po, 900 mg/day, Day 1 first dose, 900 mg/day BID, n=8
# [15] = po, 1300 mg/day, Day 1 first dose, 1300 mg/day BID, n=6
# [16] = po, 1600 mg/day, Day 1 first dose, 1600 mg/day BID, n=6
smiles,measurement,setting,value
Cc1ccc2c(Nc3cccc(Cl)c3F)nccc2c1NC(=O)c1csc2c(N)ncnc12 [Belvarafenib],AUC(0-inf),[1]; [2],434000 ng·h/mL
same,AUC(0-t),[1]; [2],57600 ng·h/mL
same,Cmax,[1]; [2],3130 ng/mL
same,AUC,[1]; [2],58000 ng·h/mL
same,Vd/F,[1]; [2],241 L
same,Tmax,"[1]; oral, 600 mg/day, Multiple administrations Day 22, 600 mg/day QD, n=6, median, read-out: Tmax",4.1 h
same,AUC(0-inf),[1]; [3],322000 ng·h/mL
same,AUC(0-t),[1]; [3],126000 ng·h/mL
same,Cmax,[1]; [3],6090 ng/mL
same,AUC,[1]; [3],127000 ng·h/mL
same,Vd/F,[1]; [3],148 L
same,Tmax,"[1]; oral, 900 mg/day, Multiple administrations Day 22, 900 mg/day BID, n=7, median, read-out: Tmax",2.9 h
same,AUC(0-inf),[1]; [4],625000 ng·h/mL
same,AUC(0-t),[1]; [4],158000 ng·h/mL
same,Cmax,[1]; [4],7320 ng/mL
same,AUC,[1]; [4],159000 ng·h/mL
same,Vd/F,[1]; [4],195 L
same,Tmax,"[1]; oral, 1300 mg/day, Multiple administrations Day 22, 1300 mg/day BID, n=6, median, read-out: Tmax",2 h
same,AUC(0-inf),[1]; [5],139000 ng·h/mL
same,AUC(0-t),[1]; [5],49200 ng·h/mL
same,Cmax,[1]; [5],2360 ng/mL
same,AUC,[1]; [5],49600 ng·h/mL
same,Vd/F,[1]; [5],871 L
same,Tmax,"[1]; oral, 1600 mg/day, Multiple administrations Day 22, 1600 mg/day BID, n=4, median, read-out: Tmax",5.5 h
same,Tmax,"[1]; oral, BID regimens, read-out: Single-dose median Tmax",15.5 to 24 h
same,half-life,"[1]; oral, BID regimens",32.3 to 66.4 h
same,Tmax,"[1]; oral, QD regimens, read-out: Single-dose median Tmax",3 to 4.5 h
same,half-life,"[1]; oral, QD regimens",65.1 to 106 h
same,AUC(0-inf),[1]; [6],27000 ng·h/mL
same,Cmax,[1]; [6],553 ng/mL
same,Vd/F,[1]; [6],186 L
same,Tmax,"[1]; po, 50 mg/day QD, Day 1 first dose, 50 mg/day QD, n=3, median, read-out: Tmax",3 h
same,AUC(0-t),"[1]; po, 50 mg/day, Day 1 first dose, 50 mg/day QD, n=3",13000 ng·h/mL
same,AUC(0-inf),[1]; [7],51500 ng·h/mL
same,Cmax,[1]; [7],807 ng/mL
same,Vd/F,[1]; [7],215 L
same,Tmax,"[1]; po, 100 mg/day QD, Day 1 first dose, 100 mg/day QD, n=3, median, read-out: Tmax",3 h
same,AUC(0-t),"[1]; po, 100 mg/day, Day 1 first dose, 100 mg/day QD, n=3",45000 ng·h/mL
same,AUC(0-inf),[1]; [8],37800 ng·h/mL
same,AUC(0-t),[1]; [8],28800 ng·h/mL
same,Cmax,[1]; [8],602 ng/mL
same,Vd/F,[1]; [8],529 L
same,Tmax,"[1]; po, 200 mg, Day 1 first dose, 200 mg/day QD, n=6, median, read-out: Tmax",4.4 h
same,AUC(0-inf),[1]; [9],32800 ng·h/mL
same,Cmax,[1]; [9],549 ng/mL
same,Vd/F,[1]; [9],550 L
same,Tmax,"[1]; po, 200 mg/day QD, Day 1 first dose, 200 mg/day QD, n=7, median, read-out: Tmax",4.1 h
same,AUC(0-t),"[1]; po, 200 mg/day, Day 1 first dose, 200 mg/day QD, n=7",25100 ng·h/mL
same,AUC(0-inf),[1]; [10],78300 ng·h/mL
same,Cmax,[1]; [10],900 ng/mL
same,Vd/F,[1]; [10],758 L
same,Tmax,"[1]; po, 400 mg/day BID, Day 1 first dose, 400 mg/day BID, n=11, median, read-out: Tmax",6.9 h
same,AUC(0-t),"[1]; po, 400 mg/day, Day 1 first dose, 400 mg/day BID, n=11",62300 ng·h/mL
same,AUC(0-inf),[1]; [11],169000 ng·h/mL
same,AUC(0-t),[1]; [11],121000 ng·h/mL
same,AUC(0-t),"[1]; po, 600 mg/day QD, Day 1 first dose, 600 mg/day QD, n=6",71100 ng·h/mL
same,Cmax,[1]; [12],1210 ng/mL
same,Vd/F,[1]; [12],884 L
same,Tmax,"[1]; po, 600 mg/day, Day 1 first dose, 600 mg/day BID, n=7, median, read-out: Tmax",24 h
same,AUC(0-inf),[1]; [13],84700 ng·h/mL
same,Cmax,[1]; [13],1320 ng/mL
same,Vd/F,[1]; [13],798 L
same,Tmax,"[1]; po, 600 mg/day, Day 1 first dose, 600 mg/day QD, n=6, median, read-out: Tmax",4.5 h
same,AUC(0-inf),[1]; [14],177000 ng·h/mL
same,Cmax,[1]; [14],1590 ng/mL
same,Vd/F,[1]; [14],534 L
same,Tmax,"[1]; po, 900 mg/day, Day 1 first dose, 900 mg/day BID, n=8, median, read-out: Tmax",17 h
same,AUC(0-t),"[1]; po, 1300 mg/day BID, Day 1 first dose, 1300 mg/day BID, n=6",156000 ng·h/mL
same,AUC(0-inf),[1]; [15],225000 ng·h/mL
same,Cmax,[1]; [15],1790 ng/mL
same,Vd/F,[1]; [15],708 L
same,Tmax,"[1]; po, 1300 mg/day, Day 1 first dose, 1300 mg/day BID, n=6, median, read-out: Tmax",15.5 h
same,AUC(0-t),"[1]; po, 1600 mg/day BID, Day 1 first dose, 1600 mg/day BID, n=6",134000 ng·h/mL
same,AUC(0-inf),[1]; [16],336000 ng·h/mL
same,Cmax,[1]; [16],1440 ng/mL
same,Vd/F,[1]; [16],1700 L
same,Tmax,"[1]; po, 1600 mg/day, Day 1 first dose, 1600 mg/day BID, n=6, median, read-out: Tmax",20.4 h
same,GI50,SNU80 (BRAF^G468R),163 nM
